In patent US7205301B2, “Microbiocidal N-phenyl-n-[4-(4-pyridyl)-2-pyrimidin-2-yl]-amine derivatives” (Syngenta Crop Protection, Inc., priority 2001, dated 2007):

Assays:
Type in all cases: in vivo
[1] = system: Pyrenophora teres (Helminthosorium); assay: Example B-10: effect against Pyrenophora teres (Helminthosorium) / barley (net blotch on barley); settings: 48 h, 0.02% active substance, spray, barley cv. Regina, inoculated two days after application, assessed after 2 days incubation, read-out: control of the fungal infection
Description: Effect Against Pyrenophora teres (Helminthosorium)/Barley (Net Blotch on Barley) 1 week old barley plants cv. Regina are treated with a formulated test compound (0.02% active substance) in a spray chamber. Two days. after application barley plants are inoculated by spraying a spore suspension (3×10^4 conidia/ml) on the test plants. After an incubation period of 2 days at +20° C. and 95% r.h. the disease incidence is assessed.

[2] = system: Septoria nodorum; assay: Example B-12: effect against Septoria nodorum / wheat (Septoria leaf spot on wheat); settings: Parastagonospora nodorum, 192 h; 0.02% active substance, spray; wheat cv. Arina; inoculated one day after application; assessed 8 days after inoculation; read-out: control of the fungal infection
Description: Effect Against Septoria nodorum/Wheat (Septoria Leaf Spot on Wheat) 1 week old wheat plants cv. Arina are treated with a formulated test compound (0.02% active substance) in a spray chamber. One day after application wheat plants are inoculated by spraying a spore suspension (6×10^5 conidia/ml) on the test plants. After an incubation period of 1 day at +22° C. and 95% r.h. plants are kept for 7 days at +22° C. and 60% r.h. in a greenhouse. The disease incidence is assessed 8 days after inoculation.

[3] = system: Botrytis cinerea; assay: Example B-8: effect against Botrytis cinerea / tomato (Botrytis on tomatoes); settings: 96 h, 0.02% active substance, spray, tomato cv. Roter Gnom, inoculated two days after application, assessed after 4 days incubation, read-out: control of the fungal infection
Description: Effect Against Botrytis cinerea/Tomato (Botrytis on Tomatoes) 4 week old tomato plants cv. Roter Gnom are treated with the formulated test compound 0.02% active substance) in a spray chamber. Two days after application tomato plants are inoculated by spraying a spore suspension (1×10^5 conidia/ml) on the test plants. After an incubation period of 4 days at +20° C. and 95% r. h. in a greenhouse the disease incidence is assessed.

[4] = system: Botrytis cinerea; assay: Example B-7: Botrytis cinerea / grape (Botrytis on grapes); settings: 72 h, 0.02% active substance, spray, grape seedlings cv. Gutedel, inoculated two days after application, assessed after 3 days incubation, read-out: control of the fungal infection
Description: Botrytis cinerea/Grape (Botrytis on Grapes) 5 week old grape seedlings cv. Gutedel are treated with the formulated test compound (0.02% active substance) in a spray chamber. Two days after application grape plants are inoculated by spraying a spore suspension (1.5×10^5 conidia/ml) on the test plants. After an incubation period of 3 days at +21° C. and 95% r. h. in a greenhouse the disease incidence is assessed.

Structure (SMILES)	pest or weed control at 0.02 % strength [1] [%]	pest or weed control at 0.02 % strength [2] [%]	pest or weed control at 0.02 % strength [3] [%]	pest or weed control at 0.02 % strength [4] [%]
CC1=NN(c2cc(-c3ccnc(Nc4cccc(Cl)c4)n3)ccn2)C(=O)C1(C)C [1.01/028, 2-{4-[2-(3-Chloro-phenylamino)-pyrimidin-4-yl]-pyridin-2-yl}-4,4,5-trimethyl-2,4-dihydro-pyrazol-3-one]	> 70	> 70	> 70	> 70
CCC1(C)C(=O)N(c2cc(-c3ccnc(Nc4cccc(Cl)c4)n3)ccn2)N=C1C (stereo not shown) [1.03/028, 2-{4-[2-(3-Chloro-phenylamino)-pyrimidin-4-yl]-pyridin-2-yl}-4-ethyl-4,5-dimethyl-2,4-dihydro-pyrazol-3-one]	> 70	> 70	–	> 70
CC1=NN(c2cc(-c3ccnc(Nc4cccc(Cl)c4)n3)ccn2)C(=O)C12CC2 [1.04/028, 5-{4-[2-(3-Chloro-phenylamino)-pyrimidin-4-yl]-pyridin-2-yl}-7-methyl-5,6-diaza-spiro[2.4]hept-6-en-4-one]	> 70	–	> 70	> 70
CC1=NN(c2cc(-c3ccnc(Nc4cccc(Cl)c4)n3)ccn2)C(=S)C1(C)C [1.06/028, 2-{4-[2-(3-Chloro-phenylamino)-pyrimidin-4-yl]-pyridin-2-yl}-4,4,5-trimethyl-2,4-dihydro-pyrazole-3-thione]	> 70	> 70	> 70	> 70
CC1(C)C=NN(c2cc(-c3ccnc(Nc4cccc(Cl)c4)n3)ccn2)C1=O [1.07/028, 2-{4-[2-(3-Chloro-phenylamino)-pyrimidin-4-yl]-pyridin-2-yl}-4,4-dimethyl-2,4-dihydro-pyrazol-3-one]	> 70	> 70	–	> 70
COCC1=NN(c2cc(-c3ccnc(Nc4cccc(Cl)c4)n3)ccn2)C(=O)C1(C)C [1.08/028, 2-{4-[2-(3-Chloro-phenylamino)-pyrimidin-4-yl]-pyridin-2-yl}-5-methoxymethyl-4,4-dimethyl-2,4-dihydro-pyrazol-3-one]	> 70	–	–	–
Cc1c(C)n(C)n(-c2cc(-c3ccnc(Nc4cccc(Cl)c4)n3)ccn2)c1=O [2.02/028, 2-{4-[2-(3-Chloro-phenylamino)-pyrimidin-4-yl]-pyridin-2-yl}-1,4,5-trimethyl-1,2-dihydro-pyrazol-3-one]	> 70	> 70	> 70	–
Cc1cc(=O)n(-c2cc(-c3ccnc(Nc4cccc(Cl)c4)n3)ccn2)n1C [2.03/028, 2-{4-[2-(3-Chloro-phenylamino)-pyrimidin-4-yl]-pyridin-2-yl}-1,5-dimethyl-1,2-dihydro-pyrazol-3-one]	> 70	> 70	–	> 70
Cc1c(C=O)c(=O)n(-c2cc(-c3ccnc(Nc4cccc(Cl)c4)n3)ccn2)n1C [2.04/028, 2-{4-[2-(3-Chloro-phenylamino)-pyrimidin-4-yl]-pyridin-2-yl}-1,5-dimethyl-3-oxo-2,3-dihydro-1H-pyrazole-4-carbaldehyde]	–	> 70	–	–
Cc1cn(C)n(-c2cc(-c3ccnc(Nc4cccc(Cl)c4)c3)ccn2)c1=O [2.05/028, 2-{4-[2-(3-Chloro-phenylamino)-pyridin-4-yl]-pyridin-2-yl}-1,4-dimethyl-1,2-dihydro-pyrazol-3-one]	> 70	> 70	> 70	> 70
CCn1c(C)c(C)c(=O)n1-c1cc(-c2ccnc(Nc3cccc(Cl)c3)c2)ccn1 [2.06/028, 2-{4-[2-(3-Chloro-phenylamino)-pyridin-4-yl]-pyridin-2-yl}-1-ethyl-4,5-dimethyl-1,2-dihydro-pyrazol-3-one]	–	> 70	> 70	–
COCN(c1cccc(Cl)c1)c1nccc(-c2ccnc(-n3c(=O)cc(C)n3C)c2)n1 [2.08/048, 2-(4-{2-[(3-Chloro-phenyl)-methoxymethyl-amino]-pyrimidin-4-yl}-pyridin-2-yl)-1,5-dimethyl-1,2-dihydro-pyrazol-3-one]	> 70	–	> 70	> 70
COCc1c(C)c(=O)n(-c2cc(-c3ccnc(Nc4cccc(Cl)c4)n3)ccn2)n1C [2.09/028, 2-{4-[2-(3-Chloro-phenylamino)-pyrimidin-4-yl]-pyridin-2-yl}-5-methoxymethyl-1,4-dimethyl-1,2-dihydro-pyrazol-3-one]	> 70	> 70	–	> 70
COCc1cc(=O)n(-c2cc(-c3ccnc(Nc4cccc(Cl)c4)n3)ccn2)n1C [2.011/028, 2-{4-[2-(3-Chloro-phenylamino)-pyrimidin-4-yl]-pyridin-2-yl}-5-methoxymethyl-1-methyl-1,2-dihydro-pyrazol-3-one]	> 70	–	–	–
COc1cc(C)nn1-c1cc(-c2ccnc(Nc3cccc(Cl)c3)n2)ccn1 [3.01/028, (3-Chloro-phenyl)-{4-[2-(5-methoxy-3-methyl-pyrazol-1-yl)-pyridin-4-yl]-pyrimidin-2-yl}-amine]	> 70	> 70	> 70	–
COc1c(C)cnn1-c1cc(-c2ccnc(Nc3cccc(Cl)c3)n2)ccn1 [3.012/028, (3-Chloro-phenyl)-{4-[2-(5-methoxy-4-methyl-pyrazol-1-yl)-pyridin-4-yl]-pyrimidin-2-yl}-amine]	> 70	> 70	–	> 70
COCc1nn(-c2cc(-c3ccnc(Nc4cccc(Cl)c4)n3)ccn2)c(OC)c1C [3.013/028, (3-Chloro-phenyl)-{4-[2-(5-methoxy-3-methoxymethyl-4-methyl-pyrazol-1-yl)-pyridin-4-yl]-pyrimidin-2-yl}-amine]	> 70	–	–	> 70
COCc1cc(OC)n(-c2cc(-c3ccnc(Nc4cccc(Cl)c4)n3)ccn2)n1 [3.014/028, (3-Chloro-phenyl)-{4-[2-(5-methoxy-3-methoxymethyl-pyrazol-1-yl)-pyridin-4-yl]-pyrimidin-2-yl}-amine]	> 70	–	–	> 70
Cc1nn(-c2cc(-c3ccnc(Nc4cccc(Cl)c4)n3)ccn2)c(C)c1C [3.017/028, (3-Chloro-phenyl)-{4-[2-(3,4,5-trimethyl-pyrazol-1-yl)-pyridin-4-yl]-pyrimidin-2-yl}-amine]	> 70	–	–	–
